Reference: US20220009920A1 (GB005, Inc., priority 2020, published 2022)

How the values were obtained:
Test in all cases: Large panel kinase profiling
Format in all cases: biochemical
Conditions in all cases: 1 μM test article, 1 mM ATP
[1] = target: T1, EPHA6 (Homo sapiens, UniProt Q9UF33)
T1 sequence (Q9UF33 23-1036): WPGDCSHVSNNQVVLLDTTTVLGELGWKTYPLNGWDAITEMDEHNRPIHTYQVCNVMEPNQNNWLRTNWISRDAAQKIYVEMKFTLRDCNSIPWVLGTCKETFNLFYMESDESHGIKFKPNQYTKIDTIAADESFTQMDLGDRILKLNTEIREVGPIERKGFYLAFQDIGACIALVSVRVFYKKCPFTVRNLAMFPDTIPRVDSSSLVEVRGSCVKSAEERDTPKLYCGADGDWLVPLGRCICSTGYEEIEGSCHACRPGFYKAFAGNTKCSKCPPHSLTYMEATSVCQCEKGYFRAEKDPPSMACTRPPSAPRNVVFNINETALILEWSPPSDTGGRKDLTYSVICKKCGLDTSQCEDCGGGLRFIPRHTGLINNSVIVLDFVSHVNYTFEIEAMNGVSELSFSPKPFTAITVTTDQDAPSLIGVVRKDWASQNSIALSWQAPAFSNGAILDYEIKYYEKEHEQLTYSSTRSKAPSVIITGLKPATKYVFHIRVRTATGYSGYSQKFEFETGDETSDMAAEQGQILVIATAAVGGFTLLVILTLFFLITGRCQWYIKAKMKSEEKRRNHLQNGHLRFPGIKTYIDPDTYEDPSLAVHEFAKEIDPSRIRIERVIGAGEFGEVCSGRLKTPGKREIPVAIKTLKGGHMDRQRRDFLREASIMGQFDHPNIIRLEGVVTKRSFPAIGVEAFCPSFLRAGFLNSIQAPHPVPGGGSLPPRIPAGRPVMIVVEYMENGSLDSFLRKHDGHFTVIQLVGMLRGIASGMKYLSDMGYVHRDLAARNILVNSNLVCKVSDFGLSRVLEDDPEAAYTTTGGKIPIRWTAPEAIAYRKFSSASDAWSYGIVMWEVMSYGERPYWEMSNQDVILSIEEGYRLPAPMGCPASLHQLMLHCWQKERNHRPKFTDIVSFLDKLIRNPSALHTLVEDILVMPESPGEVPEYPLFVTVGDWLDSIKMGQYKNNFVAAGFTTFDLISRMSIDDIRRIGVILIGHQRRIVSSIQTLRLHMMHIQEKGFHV
Outline: (§1)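 Continuous-read kinase assay: chelation-sensor peptide, 1 mM ATP, compound at 1 μM. Plates kept at 30° C.; fluorescence sampled at 1-min intervals (360/485 nm).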

[2] = target: FGFR2 (Homo sapiens, UniProt P21802)
Sequence of FGFR2 (P21802 22-821, species assumed): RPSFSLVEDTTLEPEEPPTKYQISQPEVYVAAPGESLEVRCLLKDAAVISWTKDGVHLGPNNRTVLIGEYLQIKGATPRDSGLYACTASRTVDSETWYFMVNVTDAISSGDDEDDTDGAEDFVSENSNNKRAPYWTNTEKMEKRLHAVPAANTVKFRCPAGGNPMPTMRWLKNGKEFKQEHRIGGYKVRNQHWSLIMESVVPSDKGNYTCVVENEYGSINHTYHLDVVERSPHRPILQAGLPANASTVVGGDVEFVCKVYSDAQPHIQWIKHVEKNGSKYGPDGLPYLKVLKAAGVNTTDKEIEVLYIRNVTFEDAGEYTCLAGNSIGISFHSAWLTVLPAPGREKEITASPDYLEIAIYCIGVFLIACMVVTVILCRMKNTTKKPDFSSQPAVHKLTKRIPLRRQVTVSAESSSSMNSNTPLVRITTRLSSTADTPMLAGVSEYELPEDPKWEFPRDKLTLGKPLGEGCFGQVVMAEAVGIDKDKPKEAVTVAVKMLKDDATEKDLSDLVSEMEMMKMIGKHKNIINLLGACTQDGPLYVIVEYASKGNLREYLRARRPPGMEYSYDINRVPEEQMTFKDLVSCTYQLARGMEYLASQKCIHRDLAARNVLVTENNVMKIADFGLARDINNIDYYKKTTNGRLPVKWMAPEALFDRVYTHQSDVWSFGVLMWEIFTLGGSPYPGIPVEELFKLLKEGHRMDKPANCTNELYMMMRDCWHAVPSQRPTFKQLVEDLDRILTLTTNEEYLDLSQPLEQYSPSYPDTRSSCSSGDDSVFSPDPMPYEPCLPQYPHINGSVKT
Outline: as §1

[3] = target: T2, FRK (Homo sapiens, UniProt P42685)
T2 construct: AssayQuant Technologies, Inc. (service provider)
T2 sequence (P42685 whole entry, species assumed): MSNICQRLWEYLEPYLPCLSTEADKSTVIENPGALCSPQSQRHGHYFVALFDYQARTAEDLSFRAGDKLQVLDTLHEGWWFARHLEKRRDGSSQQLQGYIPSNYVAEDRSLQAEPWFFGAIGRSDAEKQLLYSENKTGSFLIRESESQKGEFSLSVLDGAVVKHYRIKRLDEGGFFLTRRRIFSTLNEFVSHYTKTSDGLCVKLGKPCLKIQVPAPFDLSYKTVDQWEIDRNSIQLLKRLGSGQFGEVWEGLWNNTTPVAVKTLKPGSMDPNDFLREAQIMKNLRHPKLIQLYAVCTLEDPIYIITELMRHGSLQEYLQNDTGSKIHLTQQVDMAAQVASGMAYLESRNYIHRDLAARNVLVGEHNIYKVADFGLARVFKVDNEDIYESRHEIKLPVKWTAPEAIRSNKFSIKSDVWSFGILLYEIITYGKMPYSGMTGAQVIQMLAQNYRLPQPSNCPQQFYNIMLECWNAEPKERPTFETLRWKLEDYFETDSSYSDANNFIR
Outline: as §1

[4] = target: T3, ULK2 (Homo sapiens, UniProt Q8IYT8)
T3 construct: AssayQuant Technologies, Inc. (contract laboratory that ran the panel)
T3 sequence (Q8IYT8 1-1036): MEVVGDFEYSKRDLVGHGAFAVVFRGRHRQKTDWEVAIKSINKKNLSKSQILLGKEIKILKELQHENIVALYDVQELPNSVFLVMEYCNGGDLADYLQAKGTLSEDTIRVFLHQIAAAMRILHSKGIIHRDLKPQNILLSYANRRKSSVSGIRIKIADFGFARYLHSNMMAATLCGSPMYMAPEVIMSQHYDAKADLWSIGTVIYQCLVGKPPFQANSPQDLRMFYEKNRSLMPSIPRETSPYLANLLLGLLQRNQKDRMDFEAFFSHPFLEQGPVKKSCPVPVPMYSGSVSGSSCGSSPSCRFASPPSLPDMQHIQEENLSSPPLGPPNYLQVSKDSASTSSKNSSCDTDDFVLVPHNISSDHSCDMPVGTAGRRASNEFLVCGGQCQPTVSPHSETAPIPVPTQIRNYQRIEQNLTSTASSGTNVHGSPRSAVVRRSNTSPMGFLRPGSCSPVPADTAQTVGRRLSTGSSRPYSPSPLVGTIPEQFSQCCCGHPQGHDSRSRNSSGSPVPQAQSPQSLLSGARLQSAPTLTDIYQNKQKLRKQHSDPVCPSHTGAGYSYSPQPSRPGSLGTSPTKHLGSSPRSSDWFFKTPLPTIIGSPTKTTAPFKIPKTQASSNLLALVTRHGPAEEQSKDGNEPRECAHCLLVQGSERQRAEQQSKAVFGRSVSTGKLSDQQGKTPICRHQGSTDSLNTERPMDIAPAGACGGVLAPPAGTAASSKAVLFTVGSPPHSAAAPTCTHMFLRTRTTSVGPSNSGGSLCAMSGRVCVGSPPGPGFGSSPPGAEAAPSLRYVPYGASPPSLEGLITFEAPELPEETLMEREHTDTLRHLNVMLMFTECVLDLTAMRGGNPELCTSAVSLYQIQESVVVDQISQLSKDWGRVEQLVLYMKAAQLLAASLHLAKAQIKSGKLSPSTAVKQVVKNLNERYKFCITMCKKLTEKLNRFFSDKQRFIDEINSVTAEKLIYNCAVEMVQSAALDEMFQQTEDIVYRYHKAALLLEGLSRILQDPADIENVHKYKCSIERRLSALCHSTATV
Outline: as §1

Row | SMILES | inhibition at 1 µM [1] [%] | inhibition at 1 µM [2] [%] | inhibition at 1 µM [3] [%] | inhibition at 1 µM [4] [%]
1 | C=CC(=O)N1CCCC(c2c(F)cc(C(N)=O)c3[nH]c4c(c23)CCCCC4)C1 (single isomer, unassigned) [Compound 5-6] | 6.1 | 17.7 | 4.2 | -17.5
2 | C=CC(=O)N1CCC[C@@H](c2c(F)cc(C(N)=O)c3[nH]c4c(c23)CC2(CC4)CC2)C1 [Compound 6-2, (S)-5-(1-acryloylpiperidin-3-yl)-6-fluoro-1,2,4,9-tetrahydrospiro[carbazole-3,1′-cyclopropane]-8-carboxamide] | -14.6 | -15.3 | -2.8 | -6.2
3 | C=CC(=O)N1CCC[C@@H](c2c(F)cc(C(N)=O)c3[nH]c4c(c23)CCC4)C1 [Compound 10-2, (S)-8-(1-acryloylpiperidin-3-yl)-7-fluoro-1,2,3,4-tetrahydrocyclo-penta[b]indole-5-carboxamide] | -17.7 | -3.5 | -4.1 | -5.8
